Data from patent publication US9944639B2, “Quinolizinone derivatives as PI3K inhibitors” (Lupin Limited, priority 2014, dated 2018).

Target: T1, PI3Kδ (Homo sapiens, UniProt O00329)
T1 construct: endogenous in cells; host or cells: Raji cells
Assay: Cell Based Assay for PI3Kδ (AKT phosphorylation, AlphaScreen SureFire, anti-IgM stimulated Raji cells)
Details: compounds 1 h, anti-IgM (3 μg/mL) 30 min, phosphorylation of AKT, read-out: PI3Kδ inhibition IC50
Description: [formula] C) Cell Based Assay for PI3Kδ
Raji cells were maintained in RPMI-1640 (Sigma) supplemented with 10% fetal bovine serum (heat inactivated) (FBS, Sigma), 100 U penicillin/mL, and […] streptomycin and incubated at 37° C. and 5% CO2. Cells were centrifuged and resuspended in a complete medium. The required numbers of cells were transferred to a tissue culture flask containing medium without serum for 1 h at 37° C., 5% CO2. Following 1 h serum starvation, cells were centrifuged and resuspended in Hank's Balanced Salt Solution (HBSS, Sigma) and seeded in at a density of 1 million cells/well in 96-well clear bottom plates. The cells were treated with test compounds for 1 h at 37° C., 5% CO2. Cells were then stimulated with anti-IgM (3 μg/mL) for 30 min. After Stimulation, cells were lysed with 15 μL of 5× lysis buffer and the plate was shaken on an orbital plate shaker at approximately 300 rpm for 10 min. AlphaScreen® SureFire® Cell-based Assay (Perkin-Elmer, Waltham, Mass., USA) was performed to measure phosphorylation of AKT, in the cells according to the manufacturer's instructions. The luminescence was measured using an alpha technology-compatible plate reader BMG Labtech, Germany) at 520-620 nm. Percentage inhibition was calculated according to formula: […]
IC50 values were calculated by plotting % inhibition against the respective concentrations of test compounds using GraphPad Prism 5.

T1 sequence (O00329 whole entry): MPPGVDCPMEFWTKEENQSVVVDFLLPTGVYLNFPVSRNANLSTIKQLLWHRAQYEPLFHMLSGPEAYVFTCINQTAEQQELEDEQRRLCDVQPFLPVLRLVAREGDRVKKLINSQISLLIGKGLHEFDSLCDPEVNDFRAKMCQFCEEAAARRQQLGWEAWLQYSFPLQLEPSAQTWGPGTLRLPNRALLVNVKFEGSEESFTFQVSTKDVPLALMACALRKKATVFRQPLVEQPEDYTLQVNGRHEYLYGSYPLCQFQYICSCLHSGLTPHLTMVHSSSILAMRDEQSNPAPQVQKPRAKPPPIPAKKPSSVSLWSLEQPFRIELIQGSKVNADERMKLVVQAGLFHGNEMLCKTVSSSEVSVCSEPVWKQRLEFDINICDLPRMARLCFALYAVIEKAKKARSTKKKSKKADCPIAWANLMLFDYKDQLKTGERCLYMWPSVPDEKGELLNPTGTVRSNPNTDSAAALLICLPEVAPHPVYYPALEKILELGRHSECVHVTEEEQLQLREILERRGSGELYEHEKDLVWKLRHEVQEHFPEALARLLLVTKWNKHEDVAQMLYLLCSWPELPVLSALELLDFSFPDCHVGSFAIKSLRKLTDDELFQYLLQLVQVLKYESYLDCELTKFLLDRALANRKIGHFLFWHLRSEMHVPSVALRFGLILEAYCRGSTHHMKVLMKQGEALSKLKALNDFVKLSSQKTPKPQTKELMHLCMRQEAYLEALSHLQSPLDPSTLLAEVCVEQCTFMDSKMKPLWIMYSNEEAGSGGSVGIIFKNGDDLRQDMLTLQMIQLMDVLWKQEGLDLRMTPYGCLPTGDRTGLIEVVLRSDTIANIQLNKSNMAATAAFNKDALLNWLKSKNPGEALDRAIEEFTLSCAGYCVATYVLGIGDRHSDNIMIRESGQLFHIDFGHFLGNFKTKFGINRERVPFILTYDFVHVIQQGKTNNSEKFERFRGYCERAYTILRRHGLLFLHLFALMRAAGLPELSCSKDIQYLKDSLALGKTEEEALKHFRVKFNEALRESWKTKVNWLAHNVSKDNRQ
T1 sequence (P27986 whole entry partner): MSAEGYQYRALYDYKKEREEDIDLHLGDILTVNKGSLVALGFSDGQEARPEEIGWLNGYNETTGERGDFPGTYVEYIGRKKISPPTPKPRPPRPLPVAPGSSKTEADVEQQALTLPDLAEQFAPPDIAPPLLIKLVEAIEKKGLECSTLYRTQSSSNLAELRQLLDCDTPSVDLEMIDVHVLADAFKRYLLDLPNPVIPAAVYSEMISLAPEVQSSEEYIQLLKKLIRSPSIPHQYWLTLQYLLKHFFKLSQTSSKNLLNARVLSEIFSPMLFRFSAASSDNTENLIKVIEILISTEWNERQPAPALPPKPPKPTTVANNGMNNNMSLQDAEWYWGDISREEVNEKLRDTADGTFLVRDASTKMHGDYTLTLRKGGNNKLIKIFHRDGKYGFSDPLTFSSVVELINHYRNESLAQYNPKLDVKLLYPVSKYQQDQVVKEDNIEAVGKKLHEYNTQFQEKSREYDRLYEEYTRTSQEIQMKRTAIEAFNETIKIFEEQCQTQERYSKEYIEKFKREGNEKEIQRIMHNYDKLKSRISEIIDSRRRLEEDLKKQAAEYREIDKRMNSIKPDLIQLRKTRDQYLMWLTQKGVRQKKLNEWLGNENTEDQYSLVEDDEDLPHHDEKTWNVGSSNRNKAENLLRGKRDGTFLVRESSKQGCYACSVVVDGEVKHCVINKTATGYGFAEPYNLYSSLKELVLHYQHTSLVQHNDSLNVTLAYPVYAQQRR

C[C@@H](c1cc2ccc(F)cn2c(=O)c1-c1ccccc1)n1nc(-c2cc(F)cc(NS(C)(=O)=O)c2)c2c(N)ncnc21 (single isomer, unassigned) [Compound 58a, N-(3-(4-amino-1-(1-(7-fluoro-4-oxo-3-phenyl-4H-quinolizin-2-yl)ethyl)-1H-pyrazolo[3,4-d]pyrimidin-3-yl)-5-fluorophenyl)methanesulfonamide]
IC50: 0.011 to 0.05 µM

COc1ccc(-c2nn([C@@H](C)c3cc4ccc(F)cn4c(=O)c3-c3ccccc3)c3ncnc(N)c23)cn1 (single isomer, unassigned) [Compound 64a, 2-(1-(4-amino-3-(6-methoxypyridin-3-yl)-1H-pyrazolo[3,4-d]pyrimidin-1-yl)ethyl)-7-fluoro-3-phenyl-4H-quinolizin-4-one]
IC50: 0.011 to 0.05 µM

COc1ncc(-c2nn([C@@H](C)c3cc4ccc(F)cn4c(=O)c3-c3ccccc3)c3ncnc(N)c23)cc1NS(C)(=O)=O (single isomer, unassigned) [Compound 67a, N-(5-(4-amino-1-(1-(7-fluoro-4-oxo-3-phenyl-4H-quinolizin-2-yl)ethyl)-1H-pyrazolo[3,4-d]pyrimidin-3-yl)-2-methoxypyridin-3-yl)methanesulfonamide]
IC50: 0.0001 to 0.01 µM

C[C@H](Nc1ncnc2[nH]cc(C#N)c12)c1cc2ccc(F)cn2c(=O)c1-c1ccccc1 [Compound 28, (S)-4-((1-(7-fluoro-4-oxo-3-phenyl-4H-quinolizin-2-yl)ethyl)amino)-7H-pyrrolo[2,3-d]pyrimidine-5-carbonitrile]
IC50: 0.0001 to 0.01 µM

Cc1cc(F)cc(-c2c([C@H](C)Nc3ncnc(N)c3C#N)cc3ccc(F)cn3c2=O)c1 [Compound 29, (S)-4-amino-6-((1-(7-fluoro-3-(3-fluoro-5-methylphenyl)-4-oxo-4H-quinolizin-2-yl)ethyl)amino)pyrimidine-5-carbonitrile]
IC50: 0.011 to 0.05 µM

Cc1cccc(-c2c([C@H](C)Nc3ncnc(N)c3C#N)cc3ccc(F)cn3c2=O)c1 [Compound 31, (S)-4-amino-6-((1-(7-fluoro-4-oxo-3-(m-tolyl)-4H-quinolizin-2-yl)ethyl)amino)pyrimidine-5-carbonitrile]
IC50: 0.011 to 0.05 µM

C[C@H](Nc1nc(N)nc2[nH]cnc12)c1cc2ccc(F)cn2c(=O)c1-c1ccccc1 [Compound 33, (S)-2-(1-((2-amino-9H-purin-6-yl)amino)ethyl)-7-fluoro-3-phenyl-4H-quinolizin-4-one]
IC50: 0.0001 to 0.01 µM

C[C@H](Nc1ncnc(N)c1C#N)c1cc2ccc(F)cn2c(=O)c1-c1cccc(OC(F)(F)F)c1 [Compound 34, (S)-4-amino-6-((1-(7-fluoro-4-oxo-3-(3-(trifluoromethoxy)phenyl)-4H-quinolizin-2-yl)ethyl)amino)pyrimidine-5-carbonitrile]
IC50: 0.011 to 0.05 µM

C[C@H](Nc1ncnc(N)c1C#N)c1cc2ccc(F)cn2c(=O)c1-c1ccc(F)cc1 [Compound 36, (S)-4-amino-6-((1-(7-fluoro-3-(4-fluorophenyl)-4-oxo-4H-quinolizin-2-yl)ethyl)amino)pyrimidine-5-carbonitrile]
IC50: 0.011 to 0.05 µM

C[C@H](Nc1ncnc2[nH]cc(F)c12)c1cc2ccc(F)cn2c(=O)c1-c1ccccc1 [Compound 40, (S)-7-fluoro-2-(1-((5-fluoro-7H-pyrrolo[2,3-d]pyrimidin-4-yl)amino)ethyl)-3-phenyl-4H-quinolizin-4-one]
IC50: 0.0001 to 0.01 µM

C[C@H](Nc1ncnc(N)c1C#N)c1cc2ccc(F)cn2c(=O)c1-c1cc(F)cc(F)c1 [Compound 48, (S)-4-amino-6-((1-(3-(3,5-difluorophenyl)-7-fluoro-4-oxo-4H-quinolizin-2-yl)ethyl)amino)pyrimidine-5-carbonitrile]
IC50: 0.0001 to 0.01 µM

C[C@H](Nc1ncnc2[nH]cnc12)c1cc2ccc(F)cn2c(=O)c1-c1cc(F)cc(F)c1 [Compound 50, (S)-2-(1-((9H-purin-6-yl)amino)ethyl)-3-(3,5-difluorophenyl)-7-fluoro-4H-quinolizin-4-one]
IC50: 0.011 to 0.05 µM

C[C@H](Nc1nc(N)nc2[nH]cnc12)c1cc2ccc(F)cn2c(=O)c1-c1cc(F)cc(F)c1 [Compound 51, (S)-2-(1-((2-amino-9H-purin-6-yl)amino)ethyl)-3-(3,5-difluorophenyl)-7-fluoro-4H-quinolizin-4-one]
IC50: 0.011 to 0.05 µM

C[C@H](Nc1ncnc2scnc12)c1cc2ccc(F)cn2c(=O)c1-c1ccccc1 [Compound 52, (S)-7-fluoro-3-phenyl-2-(1-(thiazolo[5,4-d]pyrimidin-7-ylamino)ethyl)-4H-quinolizin-4-one]
IC50: 0.0001 to 0.01 µM

C[C@H](Nc1nc(N)nc(Cl)c1C#N)c1cc2ccc(F)cn2c(=O)c1-c1ccccc1 [Compound 53, (S)-2-amino-4-chloro-6-((1-(7-fluoro-4-oxo-3-phenyl-4H-quinolizin-2-yl)ethyl)amino)pyrimidine-5-carbonitrile]
IC50: 0.0001 to 0.01 µM

C[C@H](Nc1ncnc2cccnc12)c1cc2ccc(F)cn2c(=O)c1-c1ccccc1 [Compound 54, (S)-7-fluoro-3-phenyl-2-(1-(pyrido[3,2-d]pyrimidin-4-ylamino)ethyl)-4H-quinolizin-4-one]
IC50: 0.0001 to 0.01 µM

CC(c1cc2ccc(F)cn2c(=O)c1-c1ccccc1)n1nc(-c2cc(O)cc(F)c2)c2c(N)ncnc21 (stereo not shown) [Compound 59, 2-(1-(4-amino-3-(3-fluoro-5-hydroxyphenyl)-1H-pyrazolo[3,4-d]pyrimidin-1-yl)ethyl)-7-fluoro-3-phenyl-4H-quinolizin-4-one]
IC50: 0.0001 to 0.01 µM

CC(c1cc2ccc(F)cn2c(=O)c1-c1ccccc1)n1nc(-c2ccc(O)c(F)c2)c2c(N)ncnc21 (stereo not shown) [Compound 60, 2-(1-(4-amino-3-(3-fluoro-4-hydroxyphenyl)-1H-pyrazolo[3,4-d]pyrimidin-1-yl)ethyl)-7-fluoro-3-phenyl-4H-quinolizin-4-one]
IC50: 0.011 to 0.05 µM

CC(c1cc2ccc(F)cn2c(=O)c1-c1ccccc1)n1nc(-c2ccc(F)c(O)c2)c2c(N)ncnc21 (stereo not shown) [Compound 61, 2-(1-(4-amino-3-(4-fluoro-3-hydroxyphenyl)-1H-pyrazolo[3,4-d]pyrimidin-1-yl)ethyl)-7-fluoro-3-phenyl-4H-quinolizin-4-one]
IC50: 0.0001 to 0.01 µM

CC(c1cc2ccc(F)cn2c(=O)c1-c1ccccc1)n1nc(-c2cccc(O)c2)c2c(N)ncnc21 (stereo not shown) [Compound 62, 2-(1-(4-amino-3-(3-hydroxyphenyl)-1H-pyrazolo[3,4-d]pyrimidin-1-yl)ethyl)-7-fluoro-3-phenyl-4H-quinolizin-4-one]
IC50: 0.0001 to 0.01 µM

CC(c1cc2ccc(F)cn2c(=O)c1-c1ccccc1)n1cc(-c2cc(O)cc(F)c2)c2c(N)ncnc21 (stereo not shown) [Compound 63, 2-(1-(4-amino-5-(3-fluoro-5-hydroxyphenyl)-7H-pyrrolo[2,3-d]pyrimidin-7-yl)ethyl)-7-fluoro-3-phenyl-4H-quinolizin-4-one]
IC50: 0.0001 to 0.01 µM

CC(c1cc2ccc(F)cn2c(=O)c1-c1ccccc1)n1nc(-c2ccc3c(c2)CC(=O)N3)c2c(N)ncnc21 (stereo not shown) [Compound 65, 2-(1-(4-amino-3-(2-oxoindolin-5-yl)-1H-pyrazolo[3,4-d]pyrimidin-1-yl)ethyl)-7-fluoro-3-phenyl-4H-quinolizin-4-one]
IC50: 0.051 to 0.25 µM
